We go through 28 compounds from patent EP4653437A2 (Innovo Therapeutics Inc., priority 2023, dated 2024).

Molecules are shown by their SMILES. pIC50: −log10 of the molar value. Some results are limits rather than exact numbers.

The target in assay [1] is T1, human 15-PGDH (Homo sapiens, UniProt P15428).
T1 construct: purchased R&D System 5660-DH
T1 sequence (P15428 1-266): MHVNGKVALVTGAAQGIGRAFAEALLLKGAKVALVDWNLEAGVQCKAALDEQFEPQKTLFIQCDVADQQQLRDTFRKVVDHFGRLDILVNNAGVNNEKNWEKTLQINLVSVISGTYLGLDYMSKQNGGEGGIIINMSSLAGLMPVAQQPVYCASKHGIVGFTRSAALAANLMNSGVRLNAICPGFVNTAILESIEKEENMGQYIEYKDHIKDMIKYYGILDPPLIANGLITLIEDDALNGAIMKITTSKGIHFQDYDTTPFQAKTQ
Description: Evaluation of 15-PGDH inhibitory activity (fluorescence enzyme assay, NAD+/PGE2). The class given is biochemical. As to conditions: human 15-PGDH enzyme, fluorescence Vmax. The method, then: 15-PGDH inhibition activity of Example compounds was measured as follows. 6.7 ng of human 15-PGDH (R&D System# 5660-DH) enzyme (10 µL) was added to a black 96 well plate, 60 µL of buffer (50 mM Tris-HCl, pH 7.5, 0.01% Tween 20) was added, and 10 µL of 200 µM β-Nicotinamide adenine dinucleotide sodium salt (Sigma, Cat# N0632-5G) was added. 10 µL of (10x) compound solution in DMSO was added and reacted for 10 minutes at room temperature.

Assay [2] has as its system A549 cells. Nature of the assay: Measurement of PGE2-increasing activity in A549 cells (IL-1β stimulated, PGE2 quantified in supernatant). The settings on record: Homo sapiens, 24 h; concentration of 1 µM of each compound; IL-1β treated A549 cells; read-out: Increased PGE2 production in A549 cells. It counts as cell-based. The method, boiled down: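 A549 cells grown 24 h in F12K with 10% FBS, then switched to serum-free medium with or without IL-1β and compound (0.1% DMSO final). After 24 h at 37 °C, 5% CO2, supernatant PGE2 quantified by immunoassay.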

With `CNC(=O)c1cccc(-c2cccc3c(C(=O)N4CCCCC4)cnn23)c1` [Example 27, N-methyl-3-(3-(piperidine-1-carbonyl)pyrazolo[1,5-a]pyridin-7-yl)benzamide], the pIC50 in assay [1] was not below 7.00. In addition, in assay [2], the fold induction at 1 µM is less than 1.5.

`N#Cc1ccc(-c2cccc3c(C(=O)N4CCC(F)CC4)cnn23)cc1` [Example 156, 4-(3-(4-fluoropiperidine-1-carbonyl)pyrazolo[1,5-a]pyridin-7-yl)benzonitrile] had a pIC50 in assay [1] not below 7.00. Moreover, the fold induction at 1 µM in assay [2] is more than 1.5.

In turn, `Cn1cnc2ncc(-c3cccc4c(C(=O)N5CCCCC5)cnn34)cc2c1=O` [Example 255, 3-methyl-6-(3-(piperidine-1-carbonyl)pyrazolo[1,5-a]pyridin-7-yl)pyrido[2,3-d]pyrimidin-4(3H)-one] had a pIC50 in assay [1] not below 7.00. Moreover, in assay [2], the fold induction at 1 µM was more than 1.5.

`Cc1ncc(-c2cc(-c3cccc4c(C(=O)N5CCCCC5)cnn34)cc(N3CCOC3=O)n2)cn1` [Example 372, 3-(6-(2-methylpyrimidin-5-yl)-4-(3-(piperidine-1-carbonyl)pyrazolo[1,5-a]pyridin-7-yl)pyridin-2-yl)oxazolidin-2-one] showed a pIC50 in assay [1] not below 7.00. The fold induction at 1 µM in assay [2] was more than 1.5.

For `CN1CCN(C(=O)c2ccc(-c3cccc4c(C(=O)N5CCCCC5)cnn34)cc2)CC1` [Example 67, (4-methylpiperazin-1-yl)(4-(3-(piperidine-1-carbonyl)pyrazolo[1,5-a]pyridin-7-yl)phenyl)methanone], the pIC50 in assay [1] was not below 7.00. In assay [2], the fold induction at 1 µM was more than 1.5.

Regarding `O=C(c1cnn2c(NCCc3ccc(Cl)cc3)cccc12)N1CCCCC1` [Example 242, [7-[2-(4-chlorophenyl)ethylamino]pyrazolo[1,5-a]pyridin-3-yl]-(1-piperidyl)methanone], in assay [1], the pIC50 was not below 7.00. For the same compound, the fold induction at 1 µM in assay [2] is less than 1.5.

The compound `CC(C)N1CCc2ccc(-c3cccc4c(C(=O)N5CCCCC5)cnn34)cc2C1=O` [Example 133, 2-isopropyl-7-(3-(piperidine-1-carbonyl)pyrazolo[1,5-a]pyridin-7-yl)-3,4-dihydroisoquinolin-1(2H)-one] had a pIC50 in assay [1] not below 7.00. The fold induction at 1 µM in assay [2] was more than 1.5.

For the compound `O=C(c1cccc(-c2cccc3c(C(=O)N4CCCCC4)cnn23)c1)N1CCC1` [Example 29, azetidin-1-yl(3-(3-(piperidine-1-carbonyl)pyrazolo[1,5-a]pyridin-7-yl)phenyl)methanone], the pIC50 in assay [1] was not below 7.00. The fold induction at 1 µM in assay [2] is more than 1.5.

In assay [1], `CN1CCN(c2ccc(-c3cccc4c(C(=O)N5CCCCC5)cnn34)cn2)CC1` [Example 111, (7-(6-(4-methylpiperazin-1-yl)pyridin-3-yl)pyrazolo[1,5-a]pyridin-3-yl)(piperidin-1-yl)methanone] had a negative logarithm of the IC50 (pIC50) not below 7.00. Further, the fold induction at 1 µM in assay [2] is more than 1.5.

`Cn1nccc1-c1cc(-c2cccc3c(C(=O)N4CCCCC4)cnn23)cc(N2CCOC2=O)n1` [Example 367, 3-(6-(1-methyl-1H-pyrazol-5-yl)-4-(3-(piperidine-1-carbonyl)pyrazolo[1,5-a]pyridin-7-yl)pyridin-2-yl)oxazolidin-2-one] had a pIC50 in assay [1] not below 7.00. In assay [2], the fold induction at 1 µM was more than 1.5.

`O=C(c1cnn2c(-c3cnc(-c4nnc(C(F)F)[s+]4[O-])nc3)cccc12)N1CCCCC1` (centres unmarked) [Example 404, [7-[2-[5-(difluoromethyl)-1-oxo-1,3,4-thiadiazol-2-yl]pyrimidin-5-yl]pyrazolo[1,5-a]pyridin-3-yl]-(1-piperidyl)methanone]: the pIC50 in assay [1] was not below 7.00. In addition, the fold induction at 1 µM in assay [2] is more than 1.5.

Consider `O=C(Nc1ccncc1)c1ccc(-c2cccc3c(C(=O)N4CCCCC4)cnn23)cn1` [Example 88, 5-(3-(piperidine-1-carbonyl)pyrazolo[1,5-a]pyridin-7-yl)-N-(pyridin-4-yl)picolinamide], for which the pIC50 in assay [1] is not below 7.00. For the same compound, in assay [2], the fold induction at 1 µM is more than 1.5.

`CN1CCC(NC(=O)c2cncc(-c3cccc4c(C(=O)N5CCCCC5)cnn34)c2)CC1` [Example 47, N-(1-methylpiperidin-4-yl)-5-(3-(piperidine-1-carbonyl)pyrazolo [1,5-a]pyridin-7-yl)nicotinamide]: the pIC50 in assay [1] is not below 7.00. Also, the fold induction at 1 µM in assay [2] is more than 1.5.

As for `O=C(c1cnn2c(-c3cnc(F)c(Cl)c3)cccc12)N1CCCCC1` [Example 289, (7-(5-chloro-6-fluoropyridin-3-yl)pyrazolo[1,5-a]pyridin-3-yl)(piperidin-1-yl)methanone], in assay [1], the pIC50 is not below 7.00. In addition, in assay [2], the fold induction at 1 µM is more than 1.5.

In assay [1], `O=C(c1cnn2c(-c3ccc(-c4noc(C(F)(F)F)n4)cc3)cccc12)N1CCCCC1` [Example 361, 1-piperidyl-[7-[4-[5-(trifluoromethyl)-1,2,4-oxadiazol-3-yl]phenyl]pyrazolo[1,5-a]pyridin-3-yl]methanone] had a pIC50 not below 7.00. Further, the fold induction at 1 µM in assay [2] was more than 1.5.

As to `CC(C)Nc1ccc(-c2cccc3c(C(=O)N4CCCCC4)cnn23)cn1` [Example 109, (7-(6-(isopropylamino)pyridin-3-yl)pyrazolo[1,5-a]pyridin-3-yl)(piperidin-1-yl)methanone], the pIC50 in assay [1] was not below 7.00. Besides, the fold induction at 1 µM in assay [2] is more than 1.5.

As for `N#Cc1c(F)cc(-c2cccc3c(C(=O)N4CCCCC4)cnn23)cc1F` [Example 290, 2,6-difluoro-4-(3-(piperidine-1-carbonyl)pyrazolo[1,5-a]pyridin-7-yl)benzonitrile], the pIC50 in assay [1] was not below 7.00. For the same compound, in assay [2], the fold induction at 1 µM is more than 1.5.

`O=C(Cc1ccc(C(F)(F)F)nc1)Nc1cncc(-c2cccc3c(C(=O)N4CCCCC4)cnn23)c1` [Example 388, N-(5-(3-(piperidine-1-carbonyl)pyrazolo[1,5-a]pyridin-7-yl)pyridin-3-yl)-2-(6-(trifluoromethyl)pyridin-3-yl)acetamide] gave a pIC50 in assay [1] not below 7.00. In addition, in assay [2], the fold induction at 1 µM is more than 1.5.

Turning to `O=C(c1ccc(-c2cccc3c(C(=O)N4CCCCC4)cnn23)cn1)N1CCNCC1` [Example 82, piperazin-1-yl(5-(3-(piperidine-1-carbonyl)pyrazolo[1,5-a]pyridin-7-yl)pyridin-2-yl)methanone], the pIC50 in assay [1] is not below 7.00. Also, in assay [2], the fold induction at 1 µM was less than 1.5.

`CCC1CCCN(C(=O)c2cnn3c(-c4ccc(F)nc4)cccc23)C1` (centres unmarked) [Example 337, (3-ethylpiperidin-1-yl)(7-(6-fluoropyridin-3-yl)pyrazolo[1,5-a]pyridin-3-yl)methanone] had a pIC50 in assay [1] not below 7.00. The fold induction at 1 µM in assay [2] was more than 1.5.

Compound `O=C(c1cnn2c(-c3cccc(-c4noc(=O)[nH]4)c3)cccc12)N1CCCCC1` [Example 115, 3-(3-(3-(piperidine-1-carbonyl)pyrazolo[1,5-a]pyridin-7-yl)phenyl)-1,2,4-oxadiazol-5(4H)-one] had a pIC50 in assay [1] not below 7.00. Moreover, in assay [2], the fold induction at 1 µM is more than 1.5.

In assay [1], `Cn1nc2cc(-c3cccc4c(C(=O)N5CCCCC5)cnn34)ccn2c1=O` [Example 252, 2-methyl-7-(3-(piperidine-1-carbonyl)pyrazolo[1,5-a]pyridin-7-yl)-[1,2,4]triazolo[4,3-a]pyridin-3(2H)-one] had a pIC50 not below 7.00. Moreover, the fold induction at 1 µM in assay [2] is more than 1.5.

In assay [1], `O=C(Nc1cncc(-c2cccc3c(C(=O)N4CCCCC4)cnn23)c1)c1cncc(F)c1` [Example 335, 5-fluoro-N-(5-(3-(piperidine-1-carbonyl)pyrazolo[1,5-a]pyridin-7-yl)pyridin-3-yl)nicotinamide] gave a pIC50 not below 7.00. Further, the fold induction at 1 µM in assay [2] was more than 1.5.

In assay [1], `NC(=O)Nc1cccc(-c2cccc3c(C(=O)N4CCCCC4)cnn23)c1` [Example 92, 1-(3-(3-(piperidine-1-carbonyl)pyrazolo[1,5-a]pyridin-7-yl)phenyl)urea] showed a pIC50 not below 7.00. Also, the fold induction at 1 µM in assay [2] is more than 1.5.

Take `O=C1CC(C(=O)Nc2cncc(-c3cccc4c(C(=O)N5CCCCC5)cnn34)c2)CCN1` (centres unmarked) [Example 198, 2-oxo-N-(5-(3-(piperidine-1-carbonyl)pyrazolo[1,5-a]pyridin-7-yl)pyridin-3-yl)piperidine-4-carboxamide]: the pIC50 in assay [1] is not below 7.00. Also, the fold induction at 1 µM in assay [2] was more than 1.5.

`O=C(c1cnn2c(-c3cc(Br)cnc3F)cccc12)N1CCCCC1` [Example 265, (7-(5-bromo-2-fluoropyridin-3-yl)pyrazolo[1,5-a]pyridin-3-yl)(piperidin-1-yl)methanone]: the pIC50 in assay [1] was not below 7.00. The fold induction at 1 µM in assay [2] was more than 1.5.

`O=C(c1cnn2c(-c3cnc(F)c(F)c3)cccc12)N1CCCCC1` [Example 288, (7-(5,6-difluoropyridin-3-yl)pyrazolo[1,5-a]pyridin-3-yl)(piperidin-1-yl)methanone] gave a pIC50 in assay [1] not below 7.00. For the same compound, the fold induction at 1 µM in assay [2] is more than 1.5.

In assay [1], `O=C(c1cnn2c(-c3ccc(-c4noc(=O)[nH]4)c(F)c3)cccc12)N1CCCCC1` [Example 304, 3-[2-fluoro-4-[3-(piperidine-1-carbonyl)pyrazolo[1,5-a]pyridin-7-yl]phenyl]-4H-1,2,4-oxadiazol-5-one] gave a pIC50 not below 7.00. For the same compound, the fold induction at 1 µM in assay [2] is more than 1.5.
